According to PMC9606955, “In Vitro Activity of Essential Oils Distilled from Colombian Plants against Candida auris and Other Candida Species with Different Antifungal Susceptibility Profiles” (Molecules, 2022):
Values after ≈ are worked out from the molar mass of the structure shown.

How the values were obtained:
[1] = system: C. krusei ATCC 6258; assay: MIC, CLSI M27 broth microdilution; format: cell-based, Candida krusei; settings: C. krusei ATCC 6258, antifungal drugs
Description: (§1) The fungal strains used in this study were C. albicans ATCC 10231, C. albicans ATCC 64550, C. parapsilosis ATCC 22019, C. tropicalis ATCC 750, C. tropicalis ATCC 200956 (resistant to azoles and AMB), C. glabrata LMDM 34 (resistant to echinocandins), C. metapsilosis MUM 15.12, C. orthopsilosis MUM 17.13, C. lusitaniae MUM 17.08, C. krusei ATCC 6258 (Issatchenkia orientalis ATCC 6258), and C. auris CDC B11903. Additionally, nine clinical isolates were included: C. parapsilosis Synlab 406 (FLC-resistant) and eight C. auris isolates identified by MALDI-TOF MS (Bruker Daltonics, Bremen, Germany) according to Zhao et al.. These yeasts were cultured on Sabouraud Dextrose Agar (SDA; Sigma-Aldrich, St. Louis, MO, USA) for 24 h at 35 °C.
(§2) Antifungal susceptibility testing was performed according to Clinical and Laboratory Standards Institute M27, 4th Edition (CLSI standard M27, 4th Edition). Some modifications were applied for evaluation of the antifungal activity of EOs and terpenes. Initially, a screening was carried out to determine the antifungal activity of the EOs and of commercial terpenes. Stock concentrations of EOs and terpenes were prepared at 512 µg/mL and an inoculum of 2.5 × 10^3 CFU/mL of each yeast was prepared in RPMI 1640-MOPS (Sigma- Aldrich St. Louis, MO, USA). Thereafter, 100 µL of each stock solution of EOs or terpenes was dispensed in 96-well microdilution plates (Corning®, Costar®, NY, USA) and 100 µL of each yeast inoculum was added. […] Microdilution plates were incubated at 35 °C and, after 24 h, the presence or absence of growth was visually checked using a manual mirror viewer and then compared with the amount of growth in the control (no EO or terpene). Compounds able to inhibit yeast growth were tested to determine the minimal inhibitory concentration (MIC) as follows: 100 µL of 10 two-fold dilutions of the EOs or commercial terpenes was dispensed in 96-well microplates and the yeast inoculum was added. Final concentrations of the EOs or terpenes ranged from 0.5 µg/mL to 256 µg/mL. Microdilution plates were incubated at 35 °C for 24 h. MICs were visually determined at the lowest concentration that produced visual inhibition compared to the growth control. The assays were performed at least three times in duplicate on different days. The results were expressed as geometric means (GM) and ranges. As an antifungal susceptibility testing control, the activity of ITC and AMB against the reference strains C. krusei ATCC 6258 and C. parapsilosis ATCC 22019 was evaluated in all experiments following the CLSI standard M27, 4th Edition. It was mandatory that the MIC values remained in the accepted range.

[2] = system: C. orthopsilosis MUM 17.13; assay: MIC, CLSI M27 broth microdilution; format: cell-based, Candida orthopsilosis; settings: C. orthopsilosis MUM 17.13, antifungal drugs
Description: as §1, §2

[3] = system: C. lusitaniae MUM 17.08; assay: MIC, CLSI M27 broth microdilution; format: cell-based, Candida lusitaniae; settings: C. lusitaniae MUM 17.08, antifungal drugs
Description: as §1, §2

[4] = system: C. metapsilosis MUM 15.12; assay: MIC, CLSI M27 broth microdilution; format: cell-based, Candida metapsilosis; settings: C. metapsilosis MUM 15.12, antifungal drugs
Description: as §1, §2

[5] = system: C. glabrata LMDM 34; assay: MIC, CLSI M27 broth microdilution; format: cell-based, Candida glabrata; settings: antifungal drugs
Description: as §1, §2

[6] = system: C. parapsilosis Synlab 406; assay: MIC, CLSI M27 broth microdilution; format: cell-based, Candida parapsilosis; settings: C. parapsilosis Synlab 406, antifungal drugs
Description: as §1, §2

[7] = system: C. parapsilosis ATCC 22019; assay: MIC, CLSI M27 broth microdilution; format: cell-based, Candida parapsilosis; settings: antifungal drugs
Description: as §1, §2

[8] = system: C. auris Ca 32; assay: MIC, CLSI M27 broth microdilution; format: cell-based, Candida auris; settings: C. auris Ca 32, antifungal drugs
Description: as §1, §2

[9] = system: C. auris CDC B11903; assay: MIC, CLSI M27 broth microdilution; format: cell-based, Candida auris; settings: C. auris CDCB11903, antifungal drugs
Description: as §1, §2

[10] = system: C. auris Ca 10; assay: MIC, CLSI M27 broth microdilution; format: cell-based, Candida auris; settings: antifungal drugs
Description: as §1, §2

[11] = system: C. auris Ca 41; assay: MIC, CLSI M27 broth microdilution; format: cell-based, Candida auris; settings: C. auris Ca 41, antifungal drugs
Description: as §1, §2

[12] = system: C. auris Ca 46; assay: MIC, CLSI M27 broth microdilution; format: cell-based, Candida auris; settings: C. auris Ca 46, antifungal drugs
Description: as §1, §2

[13] = system: C. auris Ca 17; assay: MIC, CLSI M27 broth microdilution; format: cell-based, Candida auris; settings: C. auris Ca 17, antifungal drugs
Description: as §1, §2

[14] = system: C. auris Ca 1; assay: MIC, CLSI M27 broth microdilution; format: cell-based, Candida auris; settings: C. auris Ca 1, antifungal drugs
Description: as §1, §2

[15] = system: C. auris Ca 45; assay: MIC, CLSI M27 broth microdilution; format: cell-based, Candida auris; settings: C. auris Ca 45, antifungal drugs
Description: as §1, §2

[16] = system: C. auris Ca 9; assay: MIC, CLSI M27 broth microdilution; format: cell-based, Candida auris; settings: C. auris Ca 9, antifungal drugs
Description: as §1, §2

[17] = system: C. albicans ATCC 10231; assay: MIC, CLSI M27 broth microdilution; format: cell-based, Candida albicans; settings: antifungal drugs
Description: as §1, §2

[18] = system: C. albicans ATCC 64550; assay: MIC, CLSI M27 broth microdilution; format: cell-based, Candida albicans; settings: antifungal drugs
Description: as §1, §2

[19] = system: C. tropicalis ATCC 200956; assay: MIC, CLSI M27 broth microdilution; format: cell-based, Candida tropicalis; settings: C. tropicalis ATCC 200956, antifungal drugs
Description: as §1, §2

[20] = system: C. tropicalis ATCC 750; assay: MIC, CLSI M27 broth microdilution; format: cell-based, Candida tropicalis; settings: antifungal drugs
Description: as §1, §2

[21] = system: C. auris; assay: Screening of antifungal activity at 256 µg/mL against C. auris; format: cell-based, Candida auris; settings: screening at 256 µg/mL, clinical isolates of C. auris
Description: as §1
Antifungal susceptibility testing was performed according to Clinical and Laboratory Standards Institute M27, 4th Edition (CLSI standard M27, 4th Edition). Some modifications were applied for evaluation of the antifungal activity of EOs and terpenes. Initially, a screening was carried out to determine the antifungal activity of the EOs and of commercial terpenes. Stock concentrations of EOs and terpenes were prepared at 512 µg/mL and an inoculum of 2.5 × 10^3 CFU/mL of each yeast was prepared in RPMI 1640-MOPS (Sigma- Aldrich St. Louis, MO, USA). Thereafter, 100 µL of each stock solution of EOs or terpenes was dispensed in 96-well microdilution plates (Corning®, Costar®, NY, USA) and 100 µL of each yeast inoculum was added. […] MICs were visually determined at the lowest concentration that produced visual inhibition compared to the growth control. […] The results were expressed as geometric means (GM) and ranges. As an antifungal susceptibility testing control, the activity of ITC and AMB against the reference strains C. krusei ATCC 6258 and C. parapsilosis ATCC 22019 was evaluated in all experiments following the CLSI standard M27, 4th Edition. […]

Compound: CCC(C)n1ncn(-c2ccc(N3CCN(c4ccc(OCC5COC(Cn6cncn6)(c6ccc(Cl)cc6Cl)O5)cc4)CC3)cc2)c1=O (centres unmarked) [ITC, itraconazole]
- MIC Range [1]: 0.12 to 0.50 µg/mL
- MIC ([1]; Pichia kudriavzevii, ATCC6258, geometric mean, read-out: MIC GM): 0.28 µg/mL (≈ 0.397 µM)
- MIC Range [2]: 0.12 µg/mL (≈ 0.17 µM)
- MIC ([2]; Lodderomyces orthopsilosis, MUM17.13, geometric mean, read-out: MIC GM): 0.12 µg/mL (≈ 0.17 µM)
- MIC Range [3]: 0.03 to 0.06 µg/mL
- MIC ([3]; Clavispora lusitaniae, MUM17.08, geometric mean, read-out: MIC GM): 0.04 µg/mL (≈ 0.0567 µM)
- MIC Range [4]: 0.06 to 0.12 µg/mL
- MIC ([4]; Lodderomyces metapsilosis, MUM15.12, geometric mean, read-out: MIC GM): 0.09 µg/mL (≈ 0.128 µM)
- MIC ([5]; Nakaseomyces glabratus, LMDM34, geometric mean): 1 µg/mL (≈ 1.42 µM)
- MIC Range [5]: 1 µg/mL (≈ 1.42 µM)
- MIC Range [6]: 0.5 to 1 µg/mL
- MIC ([6]; Lodderomyces parapsilosis, SYNLAB406, geometric mean, read-out: MIC GM): 0.7 µg/mL (≈ 0.992 µM)
- MIC ([7]; Lodderomyces parapsilosis, ATCC22019, geometric mean): 0.35 µg/mL (≈ 0.496 µM)
- MIC Range [7]: 0.25 to 0.50 µg/mL
- MIC Range [8]: 0.25 to 0.50 µg/mL
- MIC ([8]; Candidozyma auris, CA32, geometric mean, read-out: MIC GM): 0.35 µg/mL (≈ 0.496 µM)
- MIC Range [9]: 0.06 to 0.12 µg/mL
- MIC ([9]; Candidozyma auris, geometric mean, read-out: MIC GM): 0.04 µg/mL (≈ 0.0567 µM)
- MIC ([10]; Candidozyma auris, CA10, geometric mean): 0.09 µg/mL (≈ 0.128 µM)
- MIC Range [10]: 0.06 to 0.12 µg/mL
- MIC Range [11]: 0.03 to 0.12 µg/mL
- MIC ([11]; Candidozyma auris, CA41, geometric mean, read-out: MIC GM): 0.06 µg/mL (≈ 0.085 µM)
- MIC Range [12]: 0.06 to 0.12 µg/mL
- MIC ([12]; Candidozyma auris, CA46, geometric mean, read-out: MIC GM): 0.04 µg/mL (≈ 0.0567 µM)
- MIC Range [13]: 0.12 to 0.5 µg/mL
- MIC ([13]; Candidozyma auris, CA17, geometric mean, read-out: MIC GM): 0.25 µg/mL (≈ 0.354 µM)
- MIC Range [14]: 0.03 to 0.12 µg/mL
- MIC ([14]; Candidozyma auris, CA1, geometric mean, read-out: MIC GM): 0.06 µg/mL (≈ 0.085 µM)
- MIC Range [15]: 0.06 to 0.12 µg/mL
- MIC ([15]; Candidozyma auris, CA45, geometric mean, read-out: MIC GM): 0.04 µg/mL (≈ 0.0567 µM)
- MIC Range [16]: 0.03 to 0.12 µg/mL
- MIC ([16]; Candidozyma auris, CA9, geometric mean, read-out: MIC GM): 0.06 µg/mL (≈ 0.085 µM)
- MIC ([17]; Candida albicans, ATCC10231, geometric mean): 0.06 µg/mL (≈ 0.085 µM)
- MIC Range [17]: 0.03 to 0.125 µg/mL
- MIC ([18]; Candida albicans, ATCC64550, geometric mean): 0.7 µg/mL (≈ 0.992 µM)
- MIC Range [18]: 0.5 to 1 µg/mL
- MIC Range [19]: >16 µg/mL
- MIC ([19]; Candida tropicalis, ATCC200956, geometric mean, read-out: MIC GM): > 16 µg/mL
- MIC ([20]; Candida tropicalis, ATCC750, geometric mean): 0.12 µg/mL (≈ 0.17 µM)
- MIC Range [20]: 0.06 to 0.25 µg/mL

Compound: CC1=CC(=O)[C@@H]2C[C@H]1C2(C)C [verbenone]
- antifungal activity in screening against C. auris [21]: active against only some of the clinical isolates of C. auris
